From publication PMC7448123, “Ru(II) Complexes Bearing O, O-Chelated Ligands Induced Apoptosis in A549 Cells through the Mitochondrial Apoptotic Pathway” (Bioinorganic Chemistry and Applications, 2020)

What was measured:
[1] = system: A549 (human lung carcinoma); assay: MTT cytotoxicity assay, A549; format: cell-based; conditions: 48 h, MTT
[2] = system: HeLa (human cervical cancer); assay: MTT cytotoxicity assay, HeLa; format: cell-based; conditions: 48 h
MCF-7 (breast cancer) = assay: MTT cytotoxicity assay, MCF-7; format: cell-based, human; conditions: 48 h
[3] = system: HepG2 (human hepatocellular carcinoma); assay: MTT cytotoxicity assay, HepG2; format: cell-based; conditions: 48 h
[4] = system: BEAS-2B (immortalized human bronchial epithelial cells); assay: MTT cytotoxicity assay, normal BEAS-2B; format: cell-based; conditions: 48 h
A549 cells [5] = assay: Cellular uptake and subcellular distribution by ICP-MS; format: cell-based, human
Protocol: A549 cells were seeded into six-well plates (5.0 × 10^5 cells per well) and grown overnight at 37°C in a 5% CO2 incubator. The cells were incubated with the different concentrations (5, 10, 15, and 20 μM) of Ru(II) complexes for different time intervals (1, 3, and 6 h). After the incubation, the cells were harvested and washed twice with PBS. Cell Mitochondria Isolation Kit was used to extract the nuclear, mitochondrial, and cytoplasmic fractions of the A549 cells. The pellets were digested with 3 mL concentrated nitric acid and 1 mL perhydrol for 24 h and then diluted to 5 mL with ultrapure water. Finally, ICP-MS was used to determine the amount of Ru(II) complexes uptaken by A549 cells.
It is generally acknowledged that the cellular uptake feature of transition metal-based compounds is an essential factor for their biological activities. As repeatedly reported by previous ruthenium complex-related studies, the more cellular uptake results in higher cytotoxicity. The cellular ruthenium concentration was determined by using ICP-MS after 1, 3, and 6 h of exposure to 5, 10, 15, and 20 μM Ru(II) complexes (Figure 2), respectively, and the results were reported as ng of ruthenium per 10^6 cell number.

A549 cells [6] = assay: Annexin V-FITC/PI apoptosis flow cytometry; format: cell-based, human; conditions: 24 h
Protocol: (§1) First, A549 cells were incubated in six-well plates for 12 h and then exposed to Ru(II) complexes for 24 h. After incubation, cell nuclei were stained with Hoechst 33342 (5 μg/mL) for 10 min, washed twice with PBS, and then photographed using an inverted fluorescence microscope. […] The suspension was stained with 5 μL Annexin V-FITC and 10 μL PI at room temperature for 15 min and then analyzed using the flow cytometer.

A549 cells [7] = assay: Intracellular ROS level, DCFH-DA flow cytometry; format: cell-based, human; conditions: 20 μM, 12 h
Protocol: The mitochondrial membrane potential (MMP) of A549 cells was analyzed by using an inverted fluorescence microscope and flow cytometry. […] For microscope observation, the collected cells were incubated in complete medium containing JC-1 (10 μg/mL) for 30 min and washed with PBS twice and then imaged by an inverted fluorescence microscope (Nikon, Japan). For flow cytometry analysis, the cells were trypsinized and washed twice with PBS and then incubated in 500 μL PBS containing JC-1 (10 μg/mL) for 30 min at 37°C. The cells were analyzed by flow cytometer immediately. The intracellular ROS level of A549 cells was detected after DCFH-DA stain, as illustrated in our new publication.
Increasing intracellular ROS levels can trigger cell apoptosis. […] To explore the roles of ROS in Ru(II) complex-induced cell apoptosis, we detected intracellular ROS levels by using an inverted fluorescence microscope and flow cytometry after staining A549 cells with DCFH-DA fluorescent dye.

[8] = Solution stability by UV-Vis absorption in water and CH3CN; format: physicochemical; conditions: 298 K, over 24 h, 20 μM
Protocol: (N-N = dip, dmp) and salicylic acid in the presence of sodium hydroxide. The crude product was purified by chromatography over alumina. The obtained compounds were analyzed by elemental analysis, ESI-MS, ^1H NMR, FTIR, and UV-Vis absorption spectroscopy, and the results were shown in Figures S1–S7 in Supplementary Materials. […] In the UV-visible spectral regions, both complexes consist of two well-resolved absorption bands. In the visible region, these two complexes present a strong MLCT transition at 500–600 nm attributed to the overlap Ru(dπ)-dip or dmp (π^∗) and Ru(dπ)-SA (π^∗). The intense band occurring between 250 nm and 300 nm is attributed to an intra-ligand (IL) π-π^∗ transition by comparing with the spectra of other Ru(II)-polypyridyl complexes.

[9] = Stability towards GSH and BSA by UV-Vis absorption; format: physicochemical; conditions: 12 h, 37 °C, PBS buffer (pH 7.4)
Protocol: Investigating the hydrolysis in the presence of biorelevant molecules is very important to assess the chemical stability and biological activities of these title complexes.
Figure S8. UV/vis absorption of Ru-1 in the absence and presence of (A) GSH or (B) BSA. All spectra were acquired 12 h after GSH or BSA addition at 37 °C in PBS buffer (pH 7.4).
Figure S9. UV/vis absorption of Ru-2 in the absence and presence of (A) GSH or (B) BSA. All spectra were acquired 12 h after GSH or BSA addition at 37 °C in PBS buffer (pH 7.4).

A549 cells [10] = assay: Hoechst 33342 nuclear staining; format: cell-based, human; conditions: 20 μΜ, 24 h
Protocol: as §1

A549 cells [11] = assay: Comet assay (single-cell gel electrophoresis), DNA damage; format: cell-based, human; conditions: 10 μM, 12 h
Protocol: Single-cell gel electrophoresis was performed to detect DNA damage, as previously described. Comet assay was performed according to the manufacturer's instructions. DNA was stained with SYBR Green I (Trevigen) and imaged under an inverted fluorescence microscope.
Excessive intracellular ROS can activate DNA damaged sensor proteins and lead to DNA damage, an essential hallmark of cell apoptosis. Indeed, the DNA damage effect has been observed in many previously developed Ru(II) complexes. To determine whether or not these complexes can induce DNA damage, the single-cell gel electrophoresis assay (comet assay) was conducted in our study. […] Also, the comet assay (DNA fragments appearance) could serve as a mark for apoptosis assessment. As shown in Figure 6(a), in the control group, there was no comet-like cell observed. […] Increasing the concentration to 20 μM recorded markedly higher levels of comet tails, showing that more DNA fragmentation has occurred.

A549 cells [12] = assay: Western blotting of apoptosis, Bcl-2 family and DNA damage proteins; format: cell-based, human
Protocol: Glyceraldehyde-3-phosphate dehydrogenase (GAPDH) was used as an internal control. The protein concentrations were determined by BCA Protein Assay Kit.

zebrafish embryos = assay: In vivo toxicity on developing zebrafish embryos
E. histolytica = system: E. histolytica; set-up: method as in PMID 17154516; conditions: read-out: IC50 anti-E. histolytica activity in vitro; cited from earlier work

O=C1[O][Ru][O]c2ccccc21.c1ccc(-c2ccnc3c2ccc2c(-c4ccccc4)ccnc23)cc1.c1ccc(-c2ccnc3c2ccc2c(-c4ccccc4)ccnc23)cc1 [Ru-1, [Ru(dip)2(SA)]]
IC50 [1]: 11.3 ± 1.1 µM
IC50 [2]: 20.1 ± 1.3 µM
IC50 (MCF-7 (breast cancer)): 29.5 ± 2.2 µM
IC50 [3]: 15.4 ± 1 µM
IC50 [4]: 54.3 ± 3.4 µM
Intracellular content of Ru (A549 cells [5]; 5 μM, 1 h): 120.3 ± 9.5 ng Ru/10^6 A549 cell number
Intracellular content of Ru (A549 cells [5]; 5 μM, 3 h): 168.5±13.0 ng Ru/10^6 A549 cell number
Intracellular content of Ru (A549 cells [5]; 5 μM, 6 h): 241.2±10.6 ng Ru/10^6 A549 cell number
Intracellular content of Ru (A549 cells [5]; 10 μM, 1 h): 146.3±13.7 ng Ru/10^6 A549 cell number
Intracellular content of Ru (A549 cells [5]; 10 μM, 3 h): 216.8±16.9 ng Ru/10^6 A549 cell number
Intracellular content of Ru (A549 cells [5]; 10 μM, 6 h): 299.4±1.2 ng Ru/10^6 A549 cell number
Intracellular content of Ru (A549 cells [5]; 15 μM, 1 h): 178.5±15.4 ng Ru/10^6 A549 cell number
Intracellular content of Ru (A549 cells [5]; 15 μM, 3 h): 246.7±25.4 ng Ru/10^6 A549 cell number
Intracellular content of Ru (A549 cells [5]; 15 μM, 6 h): 343.8±17.0 ng Ru/10^6 A549 cell number
Intracellular content of Ru (A549 cells [5]; 20 μM, 1 h): 215.9±19.4 ng Ru/10^6 A549 cell number
Intracellular content of Ru (A549 cells [5]; 20 μM, 3 h): 312.4±21.5 ng Ru/10^6 A549 cell number
Intracellular content of Ru (A549 cells [5]; 20 μM, 6 h): 432.5 ± 12.4 ng Ru/10^6 A549 cell number
Subcellular distribution (A549 cells [5]; 20 μM, nuclear, mitochondrial and cytoplasmic fractions): mostly accumulated in the cell nucleus, followed by mitochondria
early apoptotic cells (I4) (A549 cells [6]; 5 μM): 14.71%
late apoptotic/necrotic cells (I2) (A549 cells [6]; 5 μM): 7.13%
early apoptotic cells (I4) (A549 cells [6]; 10 μM): 16.27%
early apoptotic cells (I4) (A549 cells [6]; 20 μM): 21.57%
late apoptotic/necrotic cells (I2) (A549 cells [6]; 20 μM): 20.78%
MFI higher than the control group (A549 cells [7]): about 3.0 fold
change in UV-Vis absorption spectra (solution stability) [8]: no significant change
change in characteristic absorption with excessive GSH or BSA (stability) [9]: no significant change
apoptotic features, Hoechst 33342 staining (A549 cells [10]): chromatin condensation, nuclear fragmentation, and plasma membrane blebbing
DNA fragmentation, comet assay (A549 cells [11]): well-formed comet tails
cytochrome c expression in cytosol (A549 cells [12]): apparent enhancement
expression levels of antiapoptotic proteins Bcl-2 and Bcl-xl (A549 cells [12]): downregulated
expression of proapoptotic protein Bax and Bad (A549 cells [12]): increased expression
phosphorylation levels of Chk1 and Chk2 (A549 cells [12]): increased
expression of cleaved-PARP, cleaved caspase-3/8/9 (A549 cells [12]; 24 h, concentration-dependent): increased
expression of total caspase-3/8 (A549 cells [12]; 24 h, concentration-dependent): decreased
phosphorylation levels of ATM, ATR, histone, and p53 (A549 cells [12]; concentration-dependent): upregulation
cumulative hatch rate and lethality rate (zebrafish embryos; 12.5 μM): no difference compared with those of the control group
lethality rate (zebrafish embryos; 100 μM, after 96 h): lower than 35%
cumulative hatch (zebrafish embryos; 200 μM, after 72 h treatment): lower than 70%
unhealthy features observed (zebrafish embryos; 200 μM, at 96 h): pericardial cysts and spine curvature
side effects (zebrafish embryos; 12.5 to 50 μM): no apparent side effects
development of embryos (zebrafish embryos; concentration lower than 50 μM, after 96 h): all zebrafish embryos can develop into juvenile zebrafish
malformation (zebrafish embryos; concentration lower than 100 μM, at 96 h): no malformation was observed

CC(=O)C=C(C)[O-].[Cl-].[Ru+2].c1ccc(CCSCCSCCc2ccccn2)nc1 [[Ru(acac)(pdto)]Cl]
IC50 (E. histolytica): 0.06 µM
